What was measured:
C1 peptide = C1 peptide (Homo sapiens, UniProt P12724); test: Tryptophan fluorescence titration of C1 peptide with heparin oligosaccharides; format: binding; conditions: 1 μM peptide; tryptophan fluorescence at 340 nm; read-out: Kd, C1 peptide
Description: FIG. 10. Titration profiles of synthetic peptides by synthetic heparin oligosaccharides. Titrations were carried out on 1 μM peptides in the presence of heparin oligosaccharides. The Kd of each peptide-oligosaccharide interaction was determined by measuring the fluorescence change of intrinsic tryptophan at 340 nm. Data were fitted to a single-binding-site curve using nonlinear least-squares analysis.
(§1) Binding of ECP to heparin was monitored by changes in intrinsic tryptophan fluorescence emission (IFTE). ECP (200 nM) in PBS at 25° C. was titrated with small aliquots of a high concentration of pentasaccharides with minimal dilution (<2%). Protein fluorescence measurements were recorded 2 min after each addition on a Hitachi 8000 spectrofluorimeter at emission wavelength of 340 nm using an excitation wavelength of 280 nm. ΔF, the relative fluorescence change, equals F0−Fobs, where F0 and Fobs represent the initial and observed fluorescence values, respectively. […]

[1] = system: ECP binding to Beas-2B cells; test: Competitive inhibition of MBP-ECP binding to Beas-2B cells (cell ELISA); format: cell-based, human; conditions: Fifty micrograms per mililiter oligosaccharide; 5 μg/ml MBP-ECP; 4° C.
Description: FIG. 3. Heparin oligosaccharides inhibit ECP binding to cells. […] The amount of MBP-ECP bound to cells without GAG treatment was set to 100%. C, control (cells were incubated with MBP.) The data shown are the means of triplicate experiments.
FIG. 7. Synthetic peptides inhibit ECP binding to cells. […] The data shown are the means of triplicate experiments.
Beas-2B, a human bronchial epithelial cell line, was cultured in RPMI 1640 medium (Sigma-Aldrich) supplemented with heat-inactivated 10% fetal bovine serum (Gibco/Invitrogen, Carlsbad, Calif.).
The ability of MBP-ECP to bind cells in the presence of serial dilutions of oligosaccharides or peptides was determined as described (Fan, T. C., et al. (2007) Traffic 8, 1778-1795). At the present invention, synthetic heparins (dp3-9) were tested for their ability to interfere with ECP binding to Beas-2B cells. Briefly, confluent monolayers of Beas-2B cells in 96-well plates were pretreated with various concentrations of oligosaccharides or peptides in serum-free RPMI 1640 medium at 4° C. for 30 min before incubation with 5 μg/ml MBP-ECP at 4° C. for 1 h. The cells were then washed with ice-cold PBS and fixed with 2% PFA at room temperature for 15 min prior to blocking with 2% BSA/PBS at room temperature for 90 min. The level of bound MBP-ECP was quantified by ELISA analysis. MBP-ECP was detected using mouse monoclonal anti-MBP and goat anti-mouse horseradish peroxidase (HRP)-conjugated secondary antibody, followed by the enhanced chemiluminescence detection system. The amount of MBP-ECP bound to cells without oligosaccharide or peptide treatment was set to 100%.

ECP mt1 = target: T1, ECP mt1 (Homo sapiens, UniProt P12724, K65A/R61A/R63A/W62A); test: Intrinsic tryptophan fluorescence titration of ECP mt1 with heparin oligosaccharides; format: binding; conditions: PBS at 25° C., read-out: Kd, ECP mt1
T1 construct: recombinant mature ECP was injected into the rat circulation; His6 (C); made in house; host or cells: E. coli BL21-CodonPlus(DE3)
T1 sequence (P12724 28-160 R61A/W62A/R63A/K65A): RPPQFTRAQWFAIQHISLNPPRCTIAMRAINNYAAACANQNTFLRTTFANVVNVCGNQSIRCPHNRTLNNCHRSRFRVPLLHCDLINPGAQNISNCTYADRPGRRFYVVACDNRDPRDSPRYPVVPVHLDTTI
Description: (§2) FIG. 5. ITFE profiles of ECP wt and mt1 with dp5. Tryptophan titration emission spectra of […] ECP wt or mt1 bound with dp5. The emission spectra at 340 nm were recorded. The resulting isotherms were fitted by nonlinear regression least-squares computer fit using the KaleidaGraph Synergy Software. ΔF, the relative fluorescence change, equals F0−Fobs, where F0 and Fobs represent the initial and observed fluorescence values, respectively.
Amino acid residues R34, W35, R36, and K38 of ECP were simultaneously substituted to alanine using QuickChange site-directed mutagenesis (Stratagene, La Jolla, Calif.) and the resultant mutant was named ECP mt1. […]
(§3) The binding affinities of wild-type and mutant ECP for heparin oligosaccharides were subsequently monitored by intrinsic tryptophan fluorescence titration (Lau, E. K., et al. (2004) The Journal of biological chemistry 279, 22294-22305).
as §1, with “ECP (200 nM) in PBS at 25° C. was titrated with small aliquots of a high concentration of pentasaccharides with minimal dilution (<2%).” left out

ECP wt = target: T2, ECP wt (Homo sapiens, UniProt P12724); test: Intrinsic tryptophan fluorescence titration of ECP wt with heparin oligosaccharides; format: binding; conditions: PBS at 25° C., read-out: Kd, ECP wt
T2 construct: His6 (C); made in house; host or cells: E. coli BL21-CodonPlus (DE3)
T2 sequence (P12724 28-160): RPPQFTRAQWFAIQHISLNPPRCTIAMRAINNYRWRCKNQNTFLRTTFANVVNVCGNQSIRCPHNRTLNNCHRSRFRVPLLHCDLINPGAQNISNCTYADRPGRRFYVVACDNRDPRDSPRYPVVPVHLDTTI
Description: as §2, §3, §1

ECP = target: T3, ECP (Homo sapiens, UniProt P12724); test: FACE analysis of ECP binding to heparin oligosaccharides; conditions: AMAC-labeled oligosaccharide incubated with ECP, 1% agarose gel
T3 construct: His6 (C); made in house; host or cells: E. coli BL21-CodonPlus (DE3)
T3 sequence (P12724 28-160): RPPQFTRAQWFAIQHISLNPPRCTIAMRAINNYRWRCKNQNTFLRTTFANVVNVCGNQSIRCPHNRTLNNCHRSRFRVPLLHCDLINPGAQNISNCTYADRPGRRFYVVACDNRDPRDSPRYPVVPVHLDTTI
Description: FIG. 2. FACE analysis to evaluate binding of ECP to various sugar-containing substrates. A, AMAC-labeled LMWH was incubated with or without ECP in PBS for 10 min at 25° C., and the binding reaction products were separated on a 1% agarose gel. The numbers above the gel indicate the molar ratio of ECP to LMWH. B, Representative oligosaccharide binding pattern of ECP. AMAC-labeled heparin dp3 (10.8 nmol), dp5 (3.3 nmol), dp7 (1.4 nmol), dp9 (1.1 nmol), LMWH (0.03 nmol) and PI-88 (0.03 nmol) were incubated with or without 10-fold molar excess of ECP, and the binding reaction products separated on a 1% agarose gel. C, Representative oligosaccharide binding pattern of EDN. AMAC-labeled heparin dp3 (10.8 nmol), dp5 (3.3 nmol), dp7 (1.4 nmol), dp9 (1.1 nmol), LMWH (0.03 nmol) and PI-88 (0.03 nmol) were incubated with or without 10-fold molar excess of ECP, and the binding reaction products separated on a 1% agarose gel.
Thus, the minimal heparin length (or disaccharide unit) required to interact with ECP was investigated by FACE (Fluorescence-assisted carbohydrate electrophoresis).
Initially, ECP was co-incubated with LMWH at various molar ratios, and the binding products were analyzed by gel electrophoresis. […]

[2] = PBS buffer at 25° C.; HMWH 10-20 μM
Description: FIG. 11. Isothermal titration calorimetry of heparin-peptide interaction. The top panels show the differential power time course. Raw data for sequential 6-μl injections of each synthetic peptide in PBS buffer at 25° C. TAT (positive control), B, R1 (negative control), C, C1, and D, D1 into the sample cell containing 1.4 ml HMWH solution (10-20 μM). The total heat released in each injection is proportional to the area under the corresponding peak. […] The solid line represents a non-linear least squares of the reaction heat for the injection.

Beas-2B cells = conditions: biotinylated peptides, 1 h at 4° C.
Description: FIG. 7. Synthetic peptides inhibit ECP binding to cells. A, Beas-2B cells were preincubated with peptides in RPMI 1640 medium for 30 min at 4° C. before incubation with MBP-ECP for an additional 1 h. After treatment, the cells were washed with PBS and fixed with PFA. The level of bound MBP-ECP was assessed by ELISA. The amount of MBP-ECP bound to cells without peptide treatment was set to 100%. The data shown are the means of triplicate experiments. B, Beas2-B cells were incubated with biotinylated peptides for 1 h at 4° C. The amount of peptides bound to cells was assessed as for FIG. 3.
To investigate whether the RWRCK (SEQ ID NO: 8) motif is directly responsible for heparin binding, cell ELISA was conducted using a synthetic peptide, C1 (SEQ ID NO: 3), along with a positive control peptide derived from HIV-TAT, TAT (SEQ ID NO: 6) (Vives, E., et al. (1997) The Journal of biological chemistry 272, 16010-16017; Ziegler, A. and Seelig, J. (2004) Biophysical journal 86, 254-263). […] Therefore, synthetic peptides with heparin binding activity may compete with ECP for cellular binding. Furthermore, the cell surface binding ability of peptides was tested using cell ELISA assay.

[3] = AMAC-labeled LMWH, increasing peptide concentrations, room temperature 15 min
Description: FIG. 9. FACE analysis of synthetic peptides. AMAC-labeled LMWH were incubated without or with increasing concentrations of C1, TAT, D1 and R1 peptides at room temperature for 15 min. Samples were loaded and separated by agarose gel electrophoresis as described for FIG. 2.
Synthetic heparin oligosaccharide (FIG. 1) (Lee, C. J., et al. (2004) J Am Chem Soc 126, 476-477), low molecular weight heparin (LMWH) and PI-88 (kindly provided by Progen Inc., Australia) were labeled with 2-aminoacridone (AMAC) as described (Calabro, A., et al. (2000) Glycobiology 10, 273-281). AMAC-oligosaccharide and proteins were incubated at room temperature for 15 min, loaded onto 1% gels and electrophoresed as described (Holmes, O., et al. (2007) J Mol Biol 367, 395-408).
In addition, because EDN contains a conventional heparin binding sequence, the corresponding peptide, D1 (SEQ ID NO: 4), was also synthesized and tested.

[4] = system: Beas-2B cell surface heparan sulfate; conditions: 4° C. for 30 min
Description: Human Beas-2B cells were incubated with synthetic peptide (A, TAT; B, D1) at 4° C. for 30 min and then washed, fixed and analyzed. Synthetic peptide was identified with mouse anti-biotin monoclonal antibody and FITC-conjugated goat anti-mouse antibody. The distribution of synthetic peptide was examined by confocal microscopy.
To investigate whether the heparin binding QRRCK motif on EDN, corresponding to the “RWRCK” motif on ECP (SEQ ID NO: 8), was directly responsible for heparan sulfate binding on cell surface, Beas-2B cell-peptide binding was conducted using a synthetic peptide, D1 (SEQ ID NO: 4), and a positive control, TAT (SEQ ID NO: 6) purchased from Genemed Synthesis (South San Francisco, Calif.).

Beas-2B cell line = conditions: data taken from reference (Fan et al. 2007), read-out: IC50 for cytotoxic ECP; cited from earlier work

CO[C@H]1O[C@H](COS(=O)(=O)O)[C@@H](O[C@@H]2O[C@@H](C(=O)O)[C@@H](O[C@H]3O[C@H](COS(=O)(=O)O)[C@@H](O[C@@H]4O[C@@H](C(=O)O)[C@@H](O[C@H]5O[C@H](COS(=O)(=O)O)[C@@H](O)[C@H](O)[C@H]5NS(=O)(=O)O)[C@H](O)[C@H]4OS(=O)(=O)O)[C@H](O)[C@H]3NS(=O)(=O)O)[C@H](O)[C@H]2OS(=O)(=O)O)[C@H](O)[C@H]1NS(=O)(=O)O [dp5]
Kd (C1 peptide): 275 nM
inhibition of ECP binding to cells [1]: 50%
Kd (ECP mt1): 568 nM
Kd (ECP wt): 140 nM
binding to ECP (FACE) (ECP): shortest heparin fragment that retained the ability to bind ECP

NYQRRCKNQNK-biotin [D1]
heat release on binding to HMWH (ITC) [2]: exothermal reaction modes were clearly observed
cell surface binding ability of peptides (Beas-2B cells): bound to the cell surface
interaction with LMWH (FACE) [3]: bound heparin as tightly as C1
peptide binding to cell surface (confocal microscopy) [4]: bound to Beas-2B cell surface heparan sulfate

B1: ECP wt: Recombinant human eosinophil cationic protein with C-terminal His6 tag, expressed in E. coli (protein, UniProt P12724 28-160, looked up)
Eosinophil cationic protein: RPPQFTRAQWFAIQHISLNPPRCTIAMRAINNYRWRCKNQNTFLRTTFANVVNVCGNQSIRCPHNRTLNNCHRSRFRVPLLHCDLINPGAQNISNCTYADRPGRRFYVVACDNRDPRDSPRYPVVPVHLDTTI
modifications: C-terminal His6 tag
notes: Recombinant human eosinophil cationic protein with C-terminal His6 tag, expressed in E. coli
IC50 (Beas-2B cell line): 16000 nM
